Assay results: patent US8920832B2, “Composition for nucleic acid transfection” (Hokkaido System Science Co., Ltd., priority 2006, dated 2014)

Experiments:
HT1080 cells [1] = test: DNA (pCMV-SPORT-βgal) transfection into HT1080 cells: β-gal activity; format: cell-based
Description: (§1) The procedure of Test Example 5 was repeated, except that HeLa cells were replaced with HT1080 cells.
(§2) The procedure of Test Example 7 was repeated, except that HeLa cells were replaced with HT1080 cells.

HeLa cells [2] = test: DNA (pCMV-SPORT-βgal) transfection into HeLa cells: β-gal activity; settings: for β-gal activity: HeLa
Description: (§3) HeLa cells were inoculated into a 96-well plate (7,500 cells/100 μL/well), followed by culturing for about 24 hours. DNA (pCMV-SPORT-βgal) was diluted with a DMEM medium, to thereby prepare a DNA-diluted solution having a DNA concentration of 8 μg/mL (for the case of 200 ng/well). […] The thus-obtained solution or Lipofectamine 2000 as a positive control (product of Invitrogen) was diluted with a DMEM medium so that the amount of the reconstituted liposome solution or Lipofectamine 2000 added to cells was “Amount of liposomes added (μL/well)” shown in Table 9 or 10. Immediately after dilution, the DNA-diluted solution (25 μL) was added to and mixed with the liposome-diluted solution (25 μL), and the mixture was allowed to stand still at room temperature for 30 minutes, to thereby form a DNA/liposome complex. The DNA/liposome complex (50 μL) was added to the inoculated HeLa cells (about 70 to about 90% confluent), to thereby initiate transfection. After culturing at 37° C. and 5% CO2 for one hour, a 10% FBS/DMEM medium (100 μL) was added to the culture liquid, followed by culturing at 37° C. and 5% CO2 for about 21 hours.
The culture supernatant was removed, and the cells were washed with PBS(−). Thereafter, determination of β-galactosidase (hereinafter may be abbreviated as “β-gal”) activity, quantitative determination of protein, and viable cell counting were carried out as described below.
After complete removal of PBS through suction, a lysis buffer (30 μL) was added to the cells, and the mixture was stirred and then allowed to stand still at −80° C. for 30 minutes or longer for freezing. After rapid thawing in a water bath at 37° C., the mixture was again allowed to stand still at −80° C. for 30 minutes or longer for freezing, followed by rapid thawing in a water bath at 37° C. Thereafter, centrifugation was carried out (2,000 g×10 minutes), and the resultant supernatant (sample) (10 μL) was added to a 96-well microplate.
Determination of β-gal activity was carried out by means of a β-gal assay kit (product of Invitrogen). […] A 2-Me-containing cleavage buffer was added (50 μL/well) to the sample or each of the standard-diluted solutions (10 μL), and 4 mg/mL aqueous ONPG solution was added (17 μL/well), followed by incubation at 37° C. for 30 minutes. After completion of incubation, a stop buffer was added (120 μL/well) for termination of reaction, and absorbance was measured at 405 nm.
(§4) Each of the enhancers shown in Table 13 was diluted with a DMEM medium to different concentrations so that the amount of the enhancer finally added to cells was “Enhancer amount (μg/well)” shown in Table 13. […] The thus-diluted liposome solution was added to an equiamount of the above-diluted enhancer, followed by incubation at room temperature for 20 minutes. […] Subsequently, cytotoxicity was evaluated according to the aforementioned scores, and determination of β-gal activity, quantitative determination of protein, and viable cell counting were carried out.

HeLa cells [3] = test: Cytotoxicity score under microscope after DNA transfection, HeLa cells; format: cell-based
Description: as §3, §4

HT1080 cells [4] = test: Cytotoxicity score under microscope after DNA transfection, HT1080 cells; format: cell-based; design: scale not given here
Description: as §1, §2

[5] = Formulation Example 4 0.38 μL/well, enhancer 6.25 μg/well
[6] = Formulation Example 4 0.38 μL/well, enhancer 12.5 μg/well
[7] = Formulation Example 4 0.38 μL/well, enhancer 25 μg/well
[8] = Formulation Example 4 0.38 μL/well, enhancer 50 μg/well
[9] = Formulation Example 4 0.38 μL/well, enhancer 100 μg/well
[10] = Formulation Example 4 0.75 μL/well, enhancer 6.25 μg/well
[11] = Formulation Example 4 0.75 μL/well, enhancer 12.5 μg/well
[12] = Formulation Example 4 0.75 μL/well, enhancer 25 μg/well
[13] = Formulation Example 4 0.75 μL/well, enhancer 50 μg/well
[14] = Formulation Example 4 0.75 μL/well, enhancer 100 μg/well
[15] = Formulation Example 4 0.38 μL/well, enhancer 0.00625 μg/well
[16] = Formulation Example 4 0.38 μL/well, enhancer 0.0125 μg/well
[17] = Formulation Example 4 0.38 μL/well, enhancer 0.025 μg/well
[18] = Formulation Example 4 0.38 μL/well, enhancer 0.05 μg/well
[19] = Formulation Example 4 0.38 μL/well, enhancer 0.1 μg/well
[20] = Formulation Example 4 0.75 μL/well, enhancer 0.00625 μg/well
[21] = Formulation Example 4 0.75 μL/well, enhancer 0.0125 μg/well
[22] = Formulation Example 4 0.75 μL/well, enhancer 0.025 μg/well
[23] = Formulation Example 4 0.75 μL/well, enhancer 0.05 μg/well
[24] = Formulation Example 4 0.75 μL/well, enhancer 0.1 μg/well

Q: Which β-gal activity (HT1080 cells [1]; [5]) does the source give for `NCCCNCCCCNCCCN` [Spermine] here?
A: 31.1 mU/well

Q: What about the β-gal activity (HT1080 cells [1]; [6]) of the same molecule?
A: 29.1 mU/well

Q: What about the β-gal activity (HT1080 cells [1]; [7]) of the same molecule?
A: 34.9 mU/well

Q: And the β-gal activity (HT1080 cells [1]; [8])?
A: 21.5 mU/well

Q: And the β-gal activity (HT1080 cells [1]; [9])?
A: 6.8 mU/well

Q: What about the β-gal activity (HT1080 cells [1]; [10]) of the same molecule?
A: 76.5 mU/well

Q: What about the β-gal activity (HT1080 cells [1]; [11]) of the same molecule?
A: 64.6 mU/well

Q: What about the β-gal activity (HT1080 cells [1]; [12]) of the same molecule?
A: 72.9 mU/well

Q: What about the β-gal activity (HT1080 cells [1]; [13]) of the same molecule?
A: 10.9 mU/well

Q: And the β-gal activity (HT1080 cells [1]; [14])?
A: 1.3 mU/well

Q: And the β-gal activity (HeLa cells [2]; [5])?
A: 0.8 mU/well

Q: And the β-gal activity (HeLa cells [2]; [6])?
A: 1.0 mU/well

Q: What about the β-gal activity (HeLa cells [2]; [7]) of the same molecule?
A: 0.2 mU/well

Q: And the β-gal activity (HeLa cells [2]; [8])?
A: 0.2 mU/well

Q: And the β-gal activity (HeLa cells [2]; [9])?
A: 0.1 mU/well

Q: What about the β-gal activity (HeLa cells [2]; [10]) of the same molecule?
A: 1.8 mU/well

Q: And the β-gal activity (HeLa cells [2]; [11])?
A: 0.1 mU/well

Q: What about the β-gal activity (HeLa cells [2]; [12]) of the same molecule?
A: 0.0 mU/well

Q: What about the β-gal activity (HeLa cells [2]; [13]) of the same molecule?
A: 0.1 mU/well

Q: And the β-gal activity (HeLa cells [2]; [14])?
A: 0.3 mU/well

Q: What about the Cytotoxicity score (HeLa cells [3]; [5]) of the same molecule?
A: 0.0

Q: And the Cytotoxicity score (HeLa cells [3]; [6])?
A: 0.0

Q: And the Cytotoxicity score (HeLa cells [3]; [7])?
A: 0.0

Q: And the Cytotoxicity score (HeLa cells [3]; [8])?
A: 2.0

Q: And the Cytotoxicity score (HeLa cells [3]; [9])?
A: 2.0

Q: And the Cytotoxicity score (HeLa cells [3]; [10])?
A: 4.0

Q: And the Cytotoxicity score (HeLa cells [3]; [11])?
A: 4.0

Q: What about the Cytotoxicity score (HeLa cells [3]; [12]) of the same molecule?
A: 4.0

Q: And the Cytotoxicity score (HeLa cells [3]; [13])?
A: 4.0

Q: What about the Cytotoxicity score (HeLa cells [3]; [14]) of the same molecule?
A: 2.0

Q: What about the Cytotoxicity score (HT1080 cells [4]; [5]) of the same molecule?
A: 2.5

Q: What about the Cytotoxicity score (HT1080 cells [4]; [6]) of the same molecule?
A: 2.0

Q: And the Cytotoxicity score (HT1080 cells [4]; [7])?
A: 2.5

Q: And the Cytotoxicity score (HT1080 cells [4]; [8])?
A: 2.0

Q: What about the Cytotoxicity score (HT1080 cells [4]; [9]) of the same molecule?
A: 1.0

Q: And the Cytotoxicity score (HT1080 cells [4]; [10])?
A: 2.0

Q: And the Cytotoxicity score (HT1080 cells [4]; [11])?
A: 2.5

Q: And the Cytotoxicity score (HT1080 cells [4]; [12])?
A: 3.0

Q: What about the Cytotoxicity score (HT1080 cells [4]; [13]) of the same molecule?
A: 2.0

Q: What about the Cytotoxicity score (HT1080 cells [4]; [14]) of the same molecule?
A: 2.0

Q: Which results are given for pronectin?
A: β-gal activity (HT1080 cells [1]; [15]): 87.2 mU/well; β-gal activity (HT1080 cells [1]; [16]): 70.2 mU/well; β-gal activity (HT1080 cells [1]; [17]): 52.0 mU/well; β-gal activity (HT1080 cells [1]; [18]): 3.3 mU/well; β-gal activity (HT1080 cells [1]; [19]): 0.3 mU/well; β-gal activity (HT1080 cells [1]; [20]): 102.6 mU/well; β-gal activity (HT1080 cells [1]; [21]): 107.3 mU/well; β-gal activity (HT1080 cells [1]; [22]): 92.1 mU/well; β-gal activity (HT1080 cells [1]; [23]): 16.0 mU/well; β-gal activity (HT1080 cells [1]; [24]): 4.4 mU/well; β-gal activity (HeLa cells [2]; [15]): 23.3 mU/well; β-gal activity (HeLa cells [2]; [16]): 19.4 mU/well; β-gal activity (HeLa cells [2]; [17]): 15.5 mU/well; β-gal activity (HeLa cells [2]; [18]): 3.2 mU/well; β-gal activity (HeLa cells [2]; [19]): 0.8 mU/well; β-gal activity (HeLa cells [2]; [20]): 28.7 mU/well; β-gal activity (HeLa cells [2]; [21]): 25.1 mU/well; β-gal activity (HeLa cells [2]; [22]): 16.2 mU/well; β-gal activity (HeLa cells [2]; [23]): 6.2 mU/well; β-gal activity (HeLa cells [2]; [24]): 2.3 mU/well; effect of enhancer on nucleic-acid-transfecting performance and cytotoxicity, in words (HeLa cells [2]; enhancer added to liposome solution of Formulation Example 4, summary of Tables 13 and 14 (HeLa and HT1080)): excellent effects; Cytotoxicity score (HeLa cells [3]; [15]): 2.0; Cytotoxicity score (HeLa cells [3]; [16]): 2.0; Cytotoxicity score (HeLa cells [3]; [17]): 2.0; Cytotoxicity score (HeLa cells [3]; [18]): 1.5; Cytotoxicity score (HeLa cells [3]; [19]): 2.0; Cytotoxicity score (HeLa cells [3]; [20]): 4.0; Cytotoxicity score (HeLa cells [3]; [21]): 3.5; Cytotoxicity score (HeLa cells [3]; [22]): 3.5; Cytotoxicity score (HeLa cells [3]; [23]): 3.0; Cytotoxicity score (HeLa cells [3]; [24]): 3.0; Cytotoxicity score (HT1080 cells [4]; [15]): 1.5; Cytotoxicity score (HT1080 cells [4]; [16]): 1.0; Cytotoxicity score (HT1080 cells [4]; [17]): 0.5; Cytotoxicity score (HT1080 cells [4]; [18]): 1.0; Cytotoxicity score (HT1080 cells [4]; [19]): 1.0; Cytotoxicity score (HT1080 cells [4]; [20]): 3.0; Cytotoxicity score (HT1080 cells [4]; [21]): 3.0; Cytotoxicity score (HT1080 cells [4]; [22]): 2.5; Cytotoxicity score (HT1080 cells [4]; [23]): 2.5; Cytotoxicity score (HT1080 cells [4]; [24]): 2.0
